Results published in patent US9216173B2, “2-Pyridyl carboxamide-containing spleen tyrosine kinase (SYK) inhibitors” (Merck Sharp & Dohme Corp., priority 2011, dated 2015).
pIC50: −log10 of the molar value.

Target: T1, recombinant human GST-SYK (Homo sapiens, UniProt P43405)
T1 construct: purchased Carna Biosciences 08-176
Assay: Homogeneous Time-Resolved Fluorescence (HTRF) assay for the recombinant human Syk enzyme
Assay type: biochemical
Settings: GST-hSYK 5 pM, ATP 25 μM, 10-dose titration 10 μM to 0.508 nM; read-out: rhSYK Activity (IC50 rating)
Procedure, shortened: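 GST-hSYK fusion phosphorylates a peptide for 45 min at room temperature. Quenched with EDTA buffer containing 2 nM Eu-anti-phosphotyrosine antibody and 70 nM SA-APC. HTRF signal read after 30 min.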

pIC50	SMILES
> 8.00	Cc1nc(Nc2cc(N[C@@H]3CCCC[C@@H]3N)cnc2C(N)=O)ccc1-c1ccc(CO)cc1 [Example 3.7, 5-{[(1R,2S)-2-aminocyclohexyl]amino}-3-({5-[4-(hydroxymethyl)phenyl]-6-methylpyridin-2-yl}amino)pyridine-2-carboxamide]
> 8.00	Cc1nc(Nc2cc(N[C@@H]3CCCC[C@@H]3N)cnc2C(N)=O)ccc1-c1ccc(C(O)C(F)F)cc1 (stereo partly drawn) [Example 3.8, 5-{[(1R,2S)-2-aminocyclohexyl]amino}-3-({5-[4-(2,2-difluoro-1-hydroxyethyl)phenyl]-6-methylpyridin-2-yl}amino)pyridine-2-carboxamide]
> 8.00	Cc1nc(Nc2cc(N[C@@H]3CCCC[C@@H]3N)cnc2C(N)=O)ccc1-c1ccc2nnn(C)c2c1 [Example 3.9, 5-{[(1R,2S)-2-aminocyclohexyl]amino}-3-{[6-methyl-5-(1-methyl-1H-benzotriazol-6-yl)pyridin-2-yl]amino}pyridine-2-carboxamide]
> 8.00	Cc1nc(Nc2cc(N[C@@H]3CCCC[C@@H]3N)cnc2C(N)=O)ccc1-c1ccc(OC(F)F)cc1 [Example 3.10, 5-{[(1R,2S)-2-aminocyclohexyl]amino}-3-({5-[4-(difluoromethoxy)phenyl]-6-methylpyridin-2-yl}amino)pyridine-2-carboxamide]
> 8.00	Cc1nc(Nc2cc(N[C@@H]3CCCC[C@@H]3N)cnc2C(N)=O)ccc1-c1cccc(C(O)C(F)(F)F)c1 (stereo partly drawn) [Example 3.11, 5-{[(1R,2S)-2-aminocyclohexyl]amino}-3-({6-methyl-5-[3-(2,2,2-trifluoro-1-hydroxyethyl)phenyl]pyridin-2-yl}amino)pyridine-2-carboxamide]
> 8.00	Cc1nc(Nc2cc(N[C@@H]3CCCC[C@@H]3N)cnc2C(N)=O)ccc1-c1cccc2c1CNC2=O [Example 3.12, 5-{[(1R,2S)-2-aminocyclohexyl]amino}-3-{[6-methyl-5-(1-oxo-2,3-dihydro-1H-isoindol-4-yl)pyridin-2-yl]amino}pyridine-2-carboxamide]
> 8.00	Cc1nc(Nc2cc(N[C@@H]3CCCC[C@@H]3N)cnc2C(N)=O)ccc1-c1ccc(N2CCN(C)CC2)cc1 [Example 3.13, 5-{[(1R,2S)-2-aminocyclohexyl]amino}-3-({6-methyl-5-[4-(4-methylpiperazin-1-yl)phenyl]pyridin-2-yl}amino)pyridine-2-carboxamide]
> 8.00	Cc1nc(Nc2cc(N[C@@H]3CCCC[C@@H]3N)cnc2C(N)=O)ccc1-c1cccc(N2CCN(C)CC2)c1 [Example 3.14, 5-{[(1R,2S)-2-aminocyclohexyl]amino}-3-({6-methyl-5-[3-(4-methylpiperazin-1-yl)phenyl]pyridin-2-yl}amino)pyridine-2-carboxamide]
> 8.00	Cc1nc(Nc2cc(N[C@@H]3CCCC[C@@H]3N)cnc2C(N)=O)ccc1-c1ccc(-n2nccn2)cc1 [Example 3.15, 5-{[(1R,2S)-2-aminocyclohexyl]amino}-3-({6-methyl-5-[4-(2H-1,2,3-triazol-2-yl)phenyl]pyridin-2-yl}amino)pyridine-2-carboxamide]
> 8.00	Cc1nc(Nc2cc(N[C@@H]3CCCC[C@@H]3N)cnc2C(N)=O)ccc1-c1ccc2c(c1)C(=O)NC2 [Example 3.16, 5-{[(1R,2S)-2-aminocyclohexyl]amino}-3-{[6-methyl-5-(3-oxo-2,3-dihydro-1H-isoindol-5-yl)pyridin-2-yl]amino}pyridine-2-carboxamide]
> 8.00	Cc1nc(Nc2cc(N[C@@H]3CCCC[C@@H]3N)cnc2C(N)=O)ccc1-c1ccc2c(c1)CNC2=O [Example 3.17, 5-{[(1R,2S)-2-aminocyclohexyl]amino}-3-{[6-methyl-5-(1-oxo-2,3-dihydro-1H-isoindol-5-yl)pyridin-2-yl]amino}pyridine-2-carboxamide]
> 8.00	Cc1nc(Nc2cc(N[C@@H]3CCCC[C@@H]3N)cnc2C(N)=O)ccc1-c1ccc2c(cnn2C)c1 [Example 3.18, 5-{[(1R,2S)-2-aminocyclohexyl]amino}-3-{[6-methyl-5-(1-methyl-1H-indazol-5-yl)pyridin-2-yl]amino}pyridine-2-carboxamide]
> 8.00	Cc1nc(Nc2cc(N[C@@H]3CCCC[C@@H]3N)cnc2C(N)=O)ccc1-c1cccc(N(C)S(C)(=O)=O)c1 [Example 3.19, 5-{[(1R,2S)-2-aminocyclohexyl]amino}-3-[(6-methyl-5-{3-[methyl(methylsulfonyl)amino]phenyl}pyridin-2-yl)amino]pyridine-2-carboxamide]
> 8.00	Cc1nc(Nc2cc(N[C@@H]3CCCC[C@@H]3N)cnc2C(N)=O)ccc1-c1cccc(-n2nccn2)c1 [Example 3.20, 5-{[(1R,2S)-2-aminocyclohexyl]amino}-3-({6-methyl-5-[3-(2H-1,2,3-triazol-2-yl)phenyl]pyridin-2-yl}amino)pyridine-2-carboxamide]
> 8.00	Cc1nc(Nc2cc(N[C@@H]3CCCC[C@@H]3N)cnc2C(N)=O)ccc1-c1ccc2c(=O)nc[nH]c2c1 [Example 3.21, 5-{[(1R,2S)-2-aminocyclohexyl]amino}-3-{[6-methyl-5-(4-oxo-1,4-dihydroquinazolin-7-yl)pyridin-2-yl]amino}pyridine-2-carboxamide]
> 8.00	COc1ccc(-c2ccc(Nc3cc(N[C@@H]4CCCC[C@@H]4N)cnc3C(N)=O)nc2C)cn1 [Example 3.22, 5-{[(1R,2S)-2-aminocyclohexyl]amino}-3-[(6′-methoxy-2-methyl-3,3′-bipyridin-6-yl)amino]pyridine-2-carboxamide]
> 8.00	COc1ncc(-c2ccc(Nc3cc(N[C@@H]4CCCC[C@@H]4N)cnc3C(N)=O)nc2C)cn1 [Example 3.24, 5-{[(1R,2S)-2-aminocyclohexyl]amino}-3-{[5-(2-methoxypyrimidin-5-yl)-6-methylpyridin-2-yl]amino}pyridine-2-carboxamide]
> 8.00	Cc1nc(Nc2cc(N[C@@H]3CCCC[C@@H]3N)cnc2C(N)=O)ccc1-c1cncnc1 [Example 3.25, 5-{[(1R,2S)-2-aminocyclohexyl]amino}-3-[(6-methyl-5-pyrimidin-5-ylpyridin-2-yl)amino]pyridine-2-carboxamide]
> 8.00	COc1ncccc1-c1ccc(Nc2cc(N[C@@H]3CCCC[C@@H]3N)cnc2C(N)=O)nc1C [Example 3.26, 5-{[(1R,2S)-2-aminocyclohexyl]amino}-3-[(2′-methoxy-2-methyl-3,3′-bipyridin-6-yl)amino]pyridine-2-carboxamide]
> 8.00	Cc1nc(Nc2cc(N[C@@H]3CCCC[C@@H]3N)cnc2C(N)=O)ccc1-c1ccc2cccnc2c1 [Example 3.27, 5-{[(1R,2S)-2-aminocyclohexyl]amino}-3-[(6-methyl-5-quinolin-7-ylpyridin-2-yl)amino]pyridine-2-carboxamide]
7.00 to 8.00	Cc1cccc(-c2ccc(Nc3cc(N[C@@H]4CCCC[C@@H]4N)cnc3C(N)=O)nc2C)c1O [Example 3.28, 5-{[(1R,2S)-2-aminocyclohexyl]amino}-3-{[5-(2-hydroxy-3-methylphenyl)-6-methylpyridin-2-yl]amino}pyridine-2-carboxamide]
> 8.00	Cc1nc(Nc2cc(N[C@@H]3CCCC[C@@H]3N)cnc2C(N)=O)ccc1-c1ccc(-c2nccn2C)cc1 [Example 3.29, 5-{[(1R,2S)-2-aminocyclohexyl]amino}-3-({6-methyl-5-[4-(1-methyl-1H-imidazol-2-yl)phenyl]pyridin-2-yl}amino)pyridine-2-carboxamide]
> 8.00	Cc1nc(Nc2cc(N[C@@H]3CCCC[C@@H]3N)cnc2C(N)=O)ccc1-c1ccc(-c2ncco2)cc1 [Example 3.30, 5-{[(1R,2S)-2-aminocyclohexyl]amino}-3-({6-methyl-5-[4-(1,3-oxazol-2-yl)phenyl]pyridin-2-yl}amino)pyridine-2-carboxamide]
> 8.00	Cc1nc(Nc2cc(N[C@@H]3CCCC[C@@H]3N)cnc2C(N)=O)ccc1-c1ccc2c(c1)n(C)c(=O)n2C [Example 3.31, 5-{[(1R,2S)-2-aminocyclohexyl]amino}-3-{[5-(1,3-dimethyl-2-oxo-2,3-dihydro-1H-benzimidazol-5-yl)-6-methylpyridin-2-yl]amino}pyridine-2-carboxamide]
> 8.00	Cc1nc(Nc2cc(N[C@@H]3CCCC[C@@H]3N)cnc2C(N)=O)ccc1-c1ccc(C)c2ncccc12 [Example 3.32, 5-{[(1R,2S)-2-aminocyclohexyl]amino}-3-{[6-methyl-5-(8-methylquinolin-5-yl)pyridin-2-yl]amino}pyridine-2-carboxamide]
> 8.00	Cc1cc(-c2ccccc2)cc(Nc2cc(N[C@@H]3CCCC[C@@H]3N)cnc2C(N)=O)n1 [Example 4.1, 5-{[(1R,2S)-2-aminocyclohexyl]amino}-3-[(6-methyl-4-phenylpyridin-2-yl)amino]pyridine-2-carboxamide]
> 8.00	Cc1cc(-c2cccnc2)cc(Nc2cc(N[C@@H]3CCCC[C@@H]3N)cnc2C(N)=O)n1 [Example 4.2, 5-{[(1R,2S)-2-aminocyclohexyl]amino}-3-[(6′-methyl-3,4′-bipyridin-2′-yl)amino]pyridine-2-carboxamide]
> 8.00	Cc1cc(-c2cnn(C)c2)cc(Nc2cc(N[C@@H]3CCCC[C@@H]3N)cnc2C(N)=O)n1 [Example 4.3, 5-{[(1R,2S)-2-aminocyclohexyl]amino}-3-{[6-methyl-4-(1-methyl-1H-pyrazol-4-yl)pyridin-2-yl]amino}pyridine-2-carboxamide]
> 8.00	Cc1cc(-c2ccnn2C)cc(Nc2cc(N[C@@H]3CCCC[C@@H]3N)cnc2C(N)=O)n1 [Example 4.4, 5-{[(1R,2S)-2-aminocyclohexyl]amino}-3-{[6-methyl-4-(1-methyl-1H-pyrazol-5-yl)pyridin-2-yl]amino}pyridine-2-carboxamide]
> 8.00	Cc1nc(Nc2cc(N[C@@H]3CCCC[C@@H]3N)cnc2C(N)=O)ccc1OC(C)C [Example 5.1, 5-{[(1R,1S)-2-aminocyclohexyl]amino}-3-{[6-methyl-5-(propan-2-yloxy)pyridin-2-yl]amino}pyridine-2-carboxamide]
